Assay results as given in PubChem BioAssay (NCI).
Values joined by “and” are separate entries in the source; they are usually repeats but may differ in a detail not shown here. Identical values can stand only once.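 Protocol summary: plate cells (96-well), add compound at 5 concentrations, incubate 48 h, interpolate endpoints linearly. The concentration for 50% growth inhibition is given as GI50. The concentration for full growth arrest is given as TGI.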

Tests used:
Experiment in all cases: NCI anticancer screen, dose series, 48 h
[1] = system: M14 melanoma
[2] = system: UACC-257 melanoma
[3] = system: HCT-15 colon
[4] = system: SW-620 colon
[5] = system: UO-31 renal
[6] = system: MOLT-4 leukemia
[7] = system: CCRF-CEM leukemia
[8] = system: MALME-3M melanoma
[9] = system: K-562 leukemia
[10] = system: PC-3 prostate

## CCOC1=C2N=C(Cc3ccccc3F)N=C2C(=O)c2ccccc21
[1]
  TGI: > 100 µM
[2]
  TGI: > 100 µM
[3]
  TGI: > 100 µM
[4]
  TGI: > 100 µM
[5]
  TGI: > 100 µM
[6]
  TGI: > 100 µM
[7]
  TGI: > 100 µM
[8]
  TGI: > 100 µM
[9]
  TGI: > 100 µM

## COCCOCOc1ccc(OCOCCOC)c2c1C(=O)c1ccccc1C2=O
[1]
  TGI: > 100 µM
[2]
  TGI: > 88.9 µM
[3]
  TGI: > 100 µM
[4]
  TGI: > 100 µM
[5]
  TGI: > 100 µM
[6]
  TGI: > 100 µM
[7]
  TGI: > 100 µM
[8]
  TGI: > 100 µM
[9]
  TGI: > 100 µM

## Cc1ccc(C2=Nc3ccccc3SC(c3cccc([N+](=O)[O-])c3)C2)cc1 (configuration not stated)
[10]
  TGI: > 100 µM
[1]
  TGI: > 100 µM
[2]
  TGI: > 100 µM
[3]
  TGI: > 100 µM
[4]
  TGI: > 100 µM
[5]
  TGI: 23 µM
[8]
  TGI: > 100 µM
[9]
  TGI: 23.8 µM

## COc1ccc(C2[C@@H](Cl)C(=O)N2c2cc(OC)c(OC)c(OC)c2)cc1Cl (some centres not stated)
[10]
  GI50: 0.0642 µM
  TGI: > 100 µM
[1]
  GI50: 0.0773 µM
  TGI: 0.712 µM
[3]
  GI50: 0.191 µM
  TGI: > 100 µM
[4]
  GI50: 0.132 µM
  TGI: 65 µM
[5]
  GI50: 1.09 µM
  TGI: 32.7 µM
[6]
  GI50: 0.275 µM
  TGI: 50.5 µM
[7]
  GI50: 0.19 µM
  TGI: 39.4 µM
[8]
  GI50: 20.7 µM
  TGI: 72.4 µM
[9]
  GI50: 0.041 µM
  TGI: > 100 µM

## N#Cc1ccc(N=Cc2c([O-])ccc3ccccc23)cc1.[C-]#[O+].[C-]#[O+].[Ir]
[1]
  GI50: 5.22 µM
  TGI: 19 µM
[2]
  GI50: 10.6 µM
  TGI: 29 µM
[4]
  GI50: 1.93 µM
  TGI: 4.09 µM
[5]
  GI50: 13.2 µM
  TGI: 26.1 µM
[6]
  GI50: 4.16 µM
  TGI: 19.3 µM
[7]
  GI50: 1.67 µM
  TGI: 7.1 µM
[8]
  GI50: 4.42 µM
  TGI: 15.1 µM
[9]
  GI50: 8.99 µM
  TGI: 28.9 µM

## CC1(C)C2CCC13CS(=O)(=O)N1O[C@]13C(=O)O2 (some centres not stated)
[2]
  TGI: > 100 µM
[3]
  TGI: > 100 µM
[4]
  TGI: > 100 µM
[5]
  TGI: > 100 µM
[6]
  TGI: > 100 µM
[8]
  TGI: > 100 µM
[9]
  TGI: > 100 µM

## COc1ccc(-c2cc(=O)c3c(OC)c(OC)c(OC)c(OC)c3o2)cc1
[1]
  TGI: > 100 µM
[2]
  TGI: > 100 µM
[3]
  TGI: > 100 µM
[4]
  TGI: > 100 µM
[5]
  TGI: > 100 µM
[6]
  TGI: > 100 µM
[7]
  TGI: > 100 µM
[8]
  TGI: > 100 µM
[9]
  TGI: > 100 µM

## CN(C)CCC(/C=C/c1ccccc1)=N\Nc1ccc(Cl)cc1Cl
[1]
  TGI: 26.6 µM
[2]
  TGI: 27 µM
[3]
  TGI: 24.2 µM
[4]
  TGI: 27.9 µM
[5]
  TGI: 6.5 µM
[6]
  TGI: 25.9 µM
[7]
  TGI: 25.8 µM
[8]
  TGI: 41.2 µM
[9]
  TGI: 28.7 µM

## COc1cc(-c2cc(-c3cc([N+](=O)[O-])c(/C=N/NC(=O)c4ccncc4)o3)ccc2OC)ccc1C
[1]
  TGI: > 100 µM
[2]
  TGI: > 100 µM
[4]
  TGI: > 100 µM
[8]
  TGI: > 100 µM
[9]
  TGI: > 100 µM

## Cc1cc2c(c(C(=O)O)c1C)-c1cccc(F)c1C2=O
[1]
  TGI: > 100 µM
[2]
  TGI: > 100 µM
[3]
  TGI: > 100 µM
[4]
  TGI: > 100 µM
[5]
  TGI: 66.1 µM
[6]
  TGI: > 100 µM
[7]
  TGI: > 100 µM
[8]
  TGI: > 100 µM
[9]
  TGI: > 100 µM

## COC(=O)C(C)(C)N=CN(C)C
[1]
  TGI: > 100 µM
[2]
  TGI: > 100 µM
[3]
  TGI: > 100 µM
[4]
  TGI: > 100 µM
[5]
  TGI: > 100 µM
[6]
  TGI: > 100 µM
[7]
  TGI: > 100 µM
[8]
  TGI: > 100 µM
[9]
  TGI: > 100 µM

## COc1ccc(C(Cl)=C(c2ccc(OCCN(C)C)cc2)c2ccc(OCCN(C)C)cc2)cc1
[1]
  TGI: 2.92 µM
[3]
  TGI: 3.58 µM
[4]
  TGI: 2.75 µM
[5]
  TGI: 3.31 µM
[6]
  TGI: 6.04 µM
[7]
  TGI: 3.83 µM
[8]
  TGI: 3.35 µM
[9]
  TGI: 3.69 µM

## COc1ccc2c(c1OC)C(=O)OC2C1c2c(c([N+](=O)[O-])c3c(c2OC)OCO3)CCN1C (configuration not stated)
[1]
  GI50: > 100 µM
  TGI: > 100 µM
[2]
  GI50: > 100 µM
  TGI: > 100 µM
[3]
  GI50: > 100 µM
  TGI: > 100 µM
[4]
  GI50: > 100 µM
  TGI: > 100 µM
[5]
  GI50: > 100 µM
  TGI: > 100 µM
[8]
  GI50: > 100 µM
  TGI: > 100 µM

## CSC(=S)N/N=C(\C)c1cccc(C)n1
[10]
  TGI: 36.3 µM
[1]
  TGI: 1.6 µM
[2]
  TGI: 21.9 µM
[3]
  TGI: 48.1 µM
[4]
  TGI: > 56.9 µM
[5]
  TGI: 13.2 µM
[7]
  TGI: 0.102 µM
[8]
  TGI: 10 µM
[9]
  TGI: > 7.8 µM

## C/C=C(\C)c1cc(O)c(C)c2c1Oc1cc(O)c(Cl)c(C)c1C(=O)O2
[1]
  TGI: 43.4 µM
[2]
  TGI: 44.2 µM
[4]
  TGI: 37.4 µM
[5]
  TGI: 27.2 µM

## C/C1=C\[C@@H](O)C(=O)/C=C/C=C\c2csc(n2)[C@@H](C)NC(=O)C[C@@]2(CC1)S(=O)SC(=O)[C@]2(C)O (some centres not stated)
[10]
  TGI: 0.0387 µM
[1]
  TGI: 0.0397 µM
[2]
  TGI: 0.115 µM and 0.0222 µM
[4]
  TGI: 0.0143 µM
[5]
  TGI: 0.0889 µM
[6]
  GI50: > 100 µM
[7]
  TGI: > 100 µM
[8]
  TGI: 0.025 µM
[9]
  TGI: > 100 µM

## O=P1(Oc2ccccc2)C(c2ccccc2)C(c2ccccc2)=NN1c1ccccc1 (configuration not stated)
[1]
  TGI: 39.6 µM
[2]
  TGI: 75.8 µM
[3]
  TGI: 44.7 µM
[4]
  TGI: 53.1 µM
[6]
  TGI: 57 µM
[7]
  TGI: > 100 µM
[8]
  TGI: > 100 µM
[9]
  TGI: 66 µM

## Cc1ccc(S(=O)OC2C3CC4CC(C3)CC2C4)cc1 (configuration not stated)
[1]
  TGI: > 100 µM
[2]
  TGI: > 100 µM
[3]
  TGI: > 100 µM
[4]
  TGI: > 100 µM
[5]
  TGI: > 100 µM
[6]
  TGI: > 100 µM
[8]
  TGI: > 100 µM
[9]
  TGI: > 100 µM

## Cc1cc(N(CCC#N)CCC#N)ccc1/C=C1/N=C(c2ccccc2)N(N)C1=O
[1]
  TGI: > 100 µM
[2]
  TGI: > 100 µM
[3]
  TGI: > 100 µM
[4]
  TGI: > 100 µM
[5]
  TGI: > 100 µM
[6]
  TGI: > 100 µM
[7]
  TGI: > 100 µM
[8]
  TGI: > 100 µM
[9]
  TGI: > 100 µM

## COc1cc2nc(NCCCCCNC(=O)c3ccco3)nc(N)c2cc1OC
[1]
  TGI: 34.8 µM
[2]
  TGI: 38.1 µM
[3]
  TGI: > 100 µM
[4]
  TGI: 58.1 µM
[5]
  TGI: > 100 µM
[6]
  TGI: 67.8 µM
[7]
  TGI: 88.2 µM
[8]
  TGI: 33.3 µM
[9]
  TGI: > 100 µM

## [N-]=[N+]=C1C(=O)C2CC3CC(C2)CC1C3
[1]
  TGI: > 100 µM
[2]
  TGI: > 100 µM
[3]
  TGI: > 100 µM
[4]
  TGI: > 100 µM
[5]
  TGI: > 100 µM
[6]
  TGI: > 100 µM
[7]
  TGI: > 100 µM
[8]
  TGI: > 100 µM
[9]
  TGI: > 100 µM

## CN1COc2c(n(C)c(=O)[nH]c2=O)C1
[1]
  TGI: > 100 µM
[2]
  TGI: > 100 µM
[3]
  TGI: > 100 µM
[4]
  TGI: > 100 µM
[5]
  TGI: > 100 µM
[6]
  TGI: > 100 µM
[7]
  TGI: > 100 µM
[8]
  TGI: > 100 µM
[9]
  TGI: > 100 µM
